Experimental data from patent US8785473B2, “Plasminogen activator inhibitor-1 inhibitor” (Renascience Co., Ltd., priority 2009, dated 2014).
Marks after values point to notes of the source that are not given here.

Assays:
[1] = system: rat model of ferric chloride-induced thrombosis; assay: Test Example 3: antithrombotic effect confirmation test in a rat model of ferric chloride-induced thrombosis; type: in vivo; conditions: SD rats, 0.3 mg/kg or 1 mg/kg orally 2 hours before operation, compared to the vehicle group (FIG. 1)
Excerpt: The antithrombotic effect of each of compounds (4), (13), (68), and (79) prepared in Examples 4, 13, 68, and 79 (hereinafter referred to as a test compound) was confirmed using a rat model of ferric chloride-induced thrombosis.
Male 9-week-old SD rats (Japan SLC) were used, and divided into a vehicle group and a test compound group (each having n=10). Two hours before the operation for performing a test, in the test compound group, a 0.5% aqueous sodium carboxymethylcellulose (CMC) solution obtained by suspending a test compound in a mortar was added so that the test compound was orally administered in an amount of 0.3 mg/kg or 1 mg/kg. In the vehicle group, a 0.5% CMC aqueous solution that contained no test compound was orally administered. Two hours after oral administration, the rats in each group were anesthetized using […]., and the following operations were performed on a heat pad that had been kept at 38° C.
An incision was made on the cervical skin, and the left carotid artery was exposed in such a manner that the cervical skeletal muscle was not injured. The adhesion tissue was carefully peeled off. Silk thread was placed over the carotid artery, and filter paper was put on the backside of the carotid artery to prevent effusion and facilitate experiment operations. A semicircular tube 5 mm in length (SP 110, inside diameter: 1.5 mm, produced by Natsume Seisakusho Co., Ltd.) was placed on the filter paper, and the blood vessel was placed in the tube. The carotid artery blood flow was measured using a cuff-type Doppler blood flow meter (inside diameter: 1 mm) placed at the periphery side, and recorded on a recorder (Graphtec WR3320) via an amplifier (Nihon Kohden, RMP-6004M). After the carotid artery blood flow was confirmed, filter paper (Whatman, No. 1, 2.5 mm×4.2 mm), to which 2 μL of physiological saline comprising 35% (w/w) ferric chloride was added dropwise, was wrapped around the origin of the carotid artery (the filter paper was positioned so that the length in the blood vessel circumferential direction was 4.2 mm). […]

PAI-1 [2] = target: T1, PAI-1 (Homo sapiens, UniProt P05121); assay: biochemical; conditions: read-out: PAI-1 activity %
T1 sequence (P05121 24-402): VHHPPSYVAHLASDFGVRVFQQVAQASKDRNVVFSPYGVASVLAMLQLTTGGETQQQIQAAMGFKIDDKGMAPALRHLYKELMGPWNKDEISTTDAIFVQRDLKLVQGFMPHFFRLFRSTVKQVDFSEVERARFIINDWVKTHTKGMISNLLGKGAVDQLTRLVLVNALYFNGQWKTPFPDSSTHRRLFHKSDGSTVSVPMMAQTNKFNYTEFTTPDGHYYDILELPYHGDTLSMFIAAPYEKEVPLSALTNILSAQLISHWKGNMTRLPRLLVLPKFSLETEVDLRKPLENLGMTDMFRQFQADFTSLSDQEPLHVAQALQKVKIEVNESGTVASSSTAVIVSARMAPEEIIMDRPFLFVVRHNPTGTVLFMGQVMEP
Experimental: The final mixture contained 50 mM Tris-HCl (pH 8), 150 mM NaCl, 1% DMSO, 0.1% PEG-6000, 0.2 mM CHAPS, 5 nMPAI-1, 2 nM t-PA, 0.2 mM Spectrozyme t-PA synthetic substrate, and the compound (10 μM or 2.5 μM).

PAI-1 [3] = target: T1, PAI-1; assay: Reference Test Example (1): measurement of PAI-1 inhibitory activity (S-2288), comparison with tiplaxtinin; type: biochemical; set-up: purchased Molecular Innovations, Inc. (USA); conditions: concentrations of 35 μM and 50 μM (FIG. 2)
Experimental: The final mixture contained 100 mM Tris-HCl (pH 8), 30 mM NaCl, 1% DMSO, 0.1% Tween 80, 67 nM PAI-1, 9.8 nM t-PA, 1 mM S-2288, and test compound a or b (20, 35, or 50 μM).
[…] P-nitroaniline removed from the chromogenic substrate (S-2288) by t-PA action was measured using a spectrophotometer at an absorbance of 405 nm at 5-minute intervals for 30 minutes.
Comparative tests were carried out in the same manner using, in place of the above test compounds, a compound (tiplaxtinin) of the formula below that is used as an antithrombotic drug in US clinical trials (concentration: 20, 35, and 50 μM).
FIGS. 2 (A), (B), and (C) show PAI-1 activity (%) when compound a (concentrations: 20, 35, and 50 μM), compound b (concentrations: 20, 35, and 50 μM), and tiplaxtinin (comparative compound) (concentrations: 20, 35, and 50 μM) were added, respectively. The results reveal that compounds a and b had higher PAI-1 activity inhibitory action at concentrations of 35 μM and 50 μM than tiplaxtinin (comparative compound) (PAI-1 inhibitory activity).

PAI-1 [4] = target: T1, PAI-1; assay: Reference Test Example (2): evaluation of fibrinolytic action (fibrin plate, PAI-1 + t-PA); type: biochemical; set-up: purchased Molecular Innovations, Inc. (USA); conditions: mixture of PAI-1, t-PA and test compound on fibrin plate, 18 hours, lysis area
Experimental: The fibrinolytic action of Compounds a and b were evaluated in accordance with the document (Matsuo, O. et al., Haemostasis, 16, 43-50 (1986)).
Specifically, an aqueous solution (containing 25 mM barbital-sodium, 50 mM NaCl, and 25 mM CaCl2) containing a concentration of 1.5 mg/mL of fibrinogen (produced by Organon Teknica) was added, on a 9 cm-plate, to thrombin dissolved in 0.2 mL of physiological saline (10NIH U/mL: produced by Mochida Pharmaceutical Co., Ltd.), and the mixture was allowed to stand at room temperature for 2 hours. Using this mixture, fibrinolysis assay was conducted.
Namely, a mixture of PAI-1, t-PA, and a test compound was added dropwise to the plate and incubated at room temperature for 18 hours. Then, fibrinolysis due to plasminogen activation was measured from the lysis area on the plate.

[5] = system: mouse model with pulmonary fibrosis artificially induced by bleomycin; assay: Reference Test Example (3): effects on bleomycin-induced pulmonary fibrosis; type: in vivo; conditions: bleomycin mice, 200 mg/kg p.o. twice/day for 14 days
Experimental: A C57BL/6 mouse (male, body weight: 19 to 21 g) was intraperitoneally anesthetized with pentobarbital, and an incision was made on the cervical organ. Ten mice were used as controls. Bleomycin (produced by Nippon Kayaku Co., Ltd.) (1.5 U/kg) lysed in physiological saline was endotracheally administered to each of the control mice (n=10) twice a day for 14 days. On the other hand, the test mice were subjected to forcible oral administration of compound b (200 mg/kg), suspended in a 0.5% carboxymethyl cellulose aqueous solution, twice a day for 14 days, in addition to the above endotracheal administration. Then, the lung tissues taken from these control mice and test mice were analyzed, and further assayed for hydroxyproline level. The hydroxyproline level in the lung tissues was measured as the hydrolysate level of the lung tissues, according to the method of Kivirikko et al. (Anal. Biochem. 19, 249-255 (1967)). The level (severity) of pulmonary fibrosis was scored from 0 to 8, based on the method of Ashcort et al. (J. Clin. Pathol. 41, 467-470 (1988)). Further, the control mice and the test mice were assayed for plasma PAI-1 activity (ng/mL).

activity at 2.5 µM (PAI-1 [2]) [%] | activity at 10 µM (PAI-1 [2]) [%] | Compound | initial occlusion time (antithrombotic effect) [1] | also measured
 |  | O=C(Nc1ccc(Cl)cc1C(=O)O)c1cccc(-c2ccccc2)c1 [Example 4, 2-[(biphenyl-3-ylcarbonyl)amino]-5-chlorobenzoic acid] | significantly prolonged | 
 |  | O=C(COc1cccc(-c2ccoc2)c1)Nc1ccc(Cl)cc1C(=O)O [Example 13, 5-chloro-2-({[3-(furan-3-yl)phenoxy]acetyl}amino)benzoic acid] | significantly prolonged | 
88.6 | 22.1 | CC(C(=O)Nc1ccc(Cl)cc1C(=O)O)(c1ccccc1)c1ccccc1 [Example 39, 5-chloro-2-[(2,2-diphenylpropanoyl)amino]benzoic acid] |  | 
76.9 | 0.9 | O=C(COc1cccc(-c2ccccc2)c1)Nc1ccc(-c2ccccc2)cc1C(=O)O [Example 45, 4-{[(biphenyl-3-yloxy)acetyl]amino}biphenyl-3-carboxylic acid] |  | 
69.9 | 0.4 | O=C(COc1ccc(-c2ccccc2)cc1)Nc1ccc(-c2ccoc2)cc1C(=O)O [Example 46, 2-{[(biphenyl-4-yloxy)acetyl]amino}-5-(furan-3-yl)benzoic acid] |  | 
 |  | O=C(Nc1ccc(Cl)cc1C(=O)O)c1cccc(C2=CCCCC2)c1 [Example 79, 5-chloro-2-({[3-(cyclohex-1-en-1-yl)phenyl]carbonyl}amino)benzoic acid] | significantly prolonged | 
 |  | CCC(CC(=O)Nc1scc(-c2ccccc2)c1C(=O)O)C(=O)Nc1scc(-c2ccccc2)c1C(=O)O (stereo not shown) [compound a, 2-[3-(3′-Carboxy-4′-phenylthiophen-2′-ylcarbamoyl)-pentanoylamino]-4-phenylthiophen-3-carboxylic acid] |  | PAI-1 activity inhibitory action compared with tiplaxtinin (PAI-1 [3]): higher; fibrinolytic action (PAI-1 [4]): inhibit the suppression of fibrinolysis caused by PAI-1
 |  | CCC(CC(=O)Nc1scc(-c2cccs2)c1C(=O)O)C(=O)Nc1scc(-c2cccs2)c1C(=O)O (stereo not shown) [compound b, 2-[3-(3′-carboxy-4′-thienylthiophen-2′-ylcarbamoyl)-pentanoylamino]-4-thienylthiophen-3-carboxylic acid] |  | Hydroxyproline level in the lung tissues ([5]; n=10, mean±SE): 204.2 ± 9.5^b μg/lung; Plasma PAI-1 activity ([5]; n=10, mean±SE): 1.2 ± 0.1^b ng/mL; fibrosis score ([5]; scored from 0 to 8, bleomycin alone 4.7±0.17): 2.9±0.42; PAI-1 activity inhibitory action compared with tiplaxtinin (PAI-1 [3]): higher; fibrinolytic action (PAI-1 [4]): inhibit the suppression of fibrinolysis caused by PAI-1
